Results from patent US10913732B2, “Furoxans as therapies for neurodegenerative disorders” (The University of Toledo, priority 2016, dated 2021).
Entries after “also recorded” stand apart in the source; their conditions may differ.

Legend:
[1] = tested on: Male C57BL/6 mice; test: Step-through passive avoidance (STPA), scopolamine-induced amnesia; type: in vivo
Procedure: FIGS. 4A-4B: STPA experimental timeline (FIG. 4A), and results of Male C57BL/6 mice administered either vehicle or 31b via i.p. injection at 60 min or 120 min prior to training in STPA (FIG. 4B). […] Memory retention was measured as latency to enter the dark compartment 24 h after training. Data represented as mean and s.e.m.
The STPA apparatus consisted of an acrylic box with an illuminated compartment connected to a darkened compartment by a small guillotine door. Mice were placed in the illuminated side and were trained against their natural tendency to translocate to the dark side using an aversive stimulus (shock via electrified floor grading). Memory consolidation is measured as the latency times to enter the dark compartment 24 hr after training.
All procedures were performed under the approved IACUC protocol #108451. Male C57BL/6 mice (Envigo), N=9 per group, were habituated at the animal facility for at least 14 days. Ear tags were applied and animals weighed. 2 hr prior to the drug adminstration the mice were individually acclimated to the illuminated compartment to assess tendency to enter the dark chamber (measured in seconds). In this phase no shock was be delivered. […] The mice were then administered either vehicle (95 [0.9% NaCl]:5 [DMSO]) or 31b (0.1, 1, 10, or 20 mg/kg) via i.p. injection (50 μL) at 1 h or 2 h prior to training. […] Mice were individually placed into the light compartment and upon translocation to the dark compartment the guiltine door closed and the mice were trained by delivering a mild adversive stimulus (0.5 mA) via the electrified floor grading of the dark chamber. Each mouse was held in the dark chamber for 30 seconds, then returned to their cage for 120 seconds before the second training session. […] Memory retention was measured 24 hours after training by placing the same mouse in the light chamber and measuring latency to enter the dark chamber (no aversive stimulus is delivered during the retention test). Data was analyzed by one way ANOVA analysis with Dunnett's post-hoc test.

[2] = Thiol reactivity by incubation with excess thiol, HPLC-UVvis; type: physicochemical
Procedure: FIGS. 5A-5B: Thiol reactivity was analyzed via incubations containing 31b (250 μM) in the presence or absence of excess (5 mM) cysteine (or N-acetylcysteine [NAc]) in PBS (50 mM, pH
(§1) 7.4) at 37° C. (FIG. 5A). Incubations were placed in a temperature controlled HPLC autosampler and aliquots are analyzed by HPLC-UVvis periodically for 2-24 hr. Percent furoxan remaining was determined based on the area under the curve (AUC) of the HPLC UV-absorbance spectrum. Similarly, rat liver microsomes were incubated with 31b in the presence or absence of NADPH to determine microsomal stability (FIG. 5B). Warfarin and verapamil were used as slow and fast metabolizing controls.
Without wishing to be bound by theory, it is believed that furoxans require thiol attack to produce NO. […] Thiol reactivity of 31b was assessed via incubations with excess thiol (N-acetylcysteine [NAc]) at physiological pH and temperature using a temperature controlled HPLC autosampler. […]
(§2) HPLC method: solvents, H2O [0.1% FA]—solvent A; MeOH [0.1% FA]—solvent B; flow rate 1.0 mL/min. […] As described above, thiol reactivity was analyzed via incubations containing the furoxan (250 μM) in the presence or absence of excess (5 mM) cysteine (or N-acetylcysteine [NAc]) in PBS (50 mM, pH 7.4) at 37° C. Incubations were placed in a temperature controlled HPLC autosampler and aliquots were analyzed by HPLC-UVvis periodically for 2-24 hr. […]

[3] = Rat liver microsome metabolic stability; type: in vitro ADME; details: rat liver microsomes, read-out: RLM t1/2
Procedure: as §1
Metabolic stability is an important parameter for determining the drug-like properties of a molecule, especially when trying to develop attenuated furoxans which require reaction with thiols to produce an effect. The metabolism of 31b in the presence of rat liver microsomes (RLM) was studied. Verapamil and warfarin were used as well-characterized controls. […]
as §2, with “hr. Percent furoxan remaining was determined based on the area under the curve (AUC) of the HPLC UV-absorbance spectrum.” for “hr.”

CC1CCN(Cc2no[n+]([O-])c2-c2ccc(F)cc2)CC1 [31b]
Latency to enter the dark compartment ([1]; 20 mg/kg i.p. 2 hr prior to training, scopolamine 1 mg/kg i.p. 30 min prior to training, 24 hr after training): 237 s
Reversal of scopolamine induced amnesia / memory impairment in STPA ([1]; mice, i.p., scopolamine 1 mg/kg): reverses scopolamine induced memory impairment; also recorded: capable of reversing scopolamine induced amnesia
Stability in the presence of general cellular thiols, such as GSH and cysteine [2]: extremely stable
Change in amount of furoxan with excess thiol ([2]; 250 μM, 5 mM N-acetylcysteine, PBS pH 7.4, 37° C., after 24 hr): no measurable change
half-life [3]: ~11 min
